Test results published in paper PMC10525924, “Engineering and Purification of Microcin C7 Variants Resistant to Trypsin and Analysis of Their Biological Activity” (Antibiotics, 2023).
In brackets after ≈: the same amount, converted by molar mass. Where a SMILES comes first, the peptide text is derived from it.

Key:
chymotrypsin = experiment: Remaining amount by RP-HPLC after chymotrypsin treatment; format: in vitro ADME; conditions: chymotrypsin (isolated protease); chymotrypsin treated for 3 h; read-out RP-HPLC; Table S2
Method: (§3) To test whether the variants were tolerant to trypsin or other digestive enzymes, the amount of the remaining McC and its analogues remaining was determined by RP-HPLC after trypsin, pepsin, and chymotrypsin treated for 3 h (Table S2), and the inhibition zones of trypsin-treated variants were tested using the same method (Table 2).

E. coli K88 = experiment: microbe, parasite or virus in culture; format: cell-based; conditions: agar diffusion; for bacteriostatic effect on indicator strain K88: fermentation supernatant, not trypsin-treated; for antimicrobial activity after trypsin treatment, K88 / Diameters of the inhibition zones, Trypsin-Treated Group, K88: supernatant treated with trypsin 50 μg/mL, 37 °C, 3 h; for Diameters of the inhibition zones, Trypsin-Untreated Group, K88: 200 μL fermentation supernatant, 1 × 10^5 CFU/mL, 4 °C 1 h then 37 °C 24 h, chloramphenicol 100 μL of 0.25 μg/mL; for Diameters of the inhibition zones, Trypsin-Untreated Group, K88 / Diameters of the inhibition zones, Trypsin-Treated Group, K88: dash = no zone; for Diameters of the inhibition zones, Trypsin-Treated Group, K88: pH 6.8, 37 °C 24 h
Method: (§1) The pH was adjusted to 6.8.
(§2) The fermentation supernatants and pure products were used to characterize the bacteriostatic effects of McC variants by the agar diffusion and microdilution methods. Yej^+rimL^− and E. coli K88 indicator bacteria were applied. The serotype of E. coli K88 was O149:K91, K88ac, a clinically isolated strain, and provided by the College of Veterinary Medicine, China Agricultural University. The indicated bacteria were diluted to 1 × 10^5 CFU/mL and added to plate medium cooled to 50 °C. Two hundred microliters of supernatants were added to each dish, and diffusion was performed at 4 °C for 1 h. After incubation at 37 °C for 24 h, the diameters of the inhibition zones were determined. One hundred microliters of 0.25 μg/mL chloramphenicol was used as a control. The MICs of the pure McC variants were determined by microdilution in a sterilized 96-well microplate. The McC variants were serially diluted 2 times in 96-well microplates with LB medium. The concentrations of the McC variants ranged from 0.125 to 100 µg/mL. Each well was inoculated with 10 μL of overnight bacterial culture at a concentration of 1.0 × 10^5 CFU/mL and incubated at 37 °C for 24 h. A microplate reader was used to automatically observe changes in absorbance at 600 nm in order to monitor bacterial growth. A positive control group (including inoculated medium) and a negative control group (with medium only) were included. The MIC was determined as the lowest concentration of McC variant that inhibited bacterial growth (preventing an increase in the absorbance reading). All tests were performed in triplicate.

pepsin = experiment: Remaining amount by RP-HPLC after pepsin treatment; format: in vitro ADME; conditions: pepsin (isolated protease); pepsin treated for 3 h; read-out RP-HPLC; Table S2
Method: as §3

[1] = Remaining amount by RP-HPLC after chymotrypsin treatment; format: in vitro ADME; conditions: isolated enzyme chymotrypsin; chymotrypsin treated for 3 h; read-out RP-HPLC; Table S2
Method: as §3

[2] = Remaining amount by RP-HPLC after pepsin treatment; format: in vitro ADME; conditions: isolated enzyme pepsin; pepsin treated for 3 h; read-out RP-HPLC; Table S2
Method: as §3

Yej^+rimL^− strain [3] = format: cell-based; conditions: HPLC-purified variants; microdilution in LB, 96-well; 0.125 to 100 µg/mL; 1.0 × 10^5 CFU/mL; 37 °C 24 h; absorbance 600 nm; triplicate
Method: To accurately characterize the bacteriostatic abilities of the variants, the MICs of the pure McC variants toward the McCsensitive strain Yej^+rimL^− were determined. The MICs of all variants were lower than that of wild-type McC. From smallest to largest MIC, the above five variants were in the following order: R2A, R2T, R2Q, R2S, and R2H. […] Although the diameter of the inhibitory zone of R2M was smaller than those of the above five variants, the bacteriostatic ability of R2M was second only to R2T/R2Q, and the MIC was 50 μg/mL.
as §2

[4] = HPLC retention time according to hydrophobicity; format: physicochemical; conditions: chromatographic, C18 5 μm 9.4 × 250 mm; A 0.1% trichloroacetic acid, B 0.1% trichloroacetic acid with 90% acetonitrile; linear 5% B to 50% B; 1 mL/min; 35 °C; 280 nm; varies according to hydrophobicity
Method: To find the separation peaks of the variants, wildtype McC and blank control fermentation broth samples were tested by HPLC. The separation peaks with obvious differences (those with retention times of 11 min and 17 min) were purified and the antimicrobial activity was determined. […] Therefore, the molecular weight was further analyzed by mass spectrometry, and the separation peak at approximately 17 min was confirmed to be that of the desired purified McC. Since the mutations in this study involved only one amino acid and had few effects on the properties of the peptides, we predicted that the separation peaks of the variants should fluctuate around approximately 17 min according to their hydrophobicity. […] The purity of the purified variants was determined by HPLC to be greater than 80% (Table 3).
The lyophilized supernatants were dissolved in deionized water, filtered through 0.22 μm aqueous-phase filter membranes, and purified by high-performance liquid chromatography (HPLC, Agilent Technologies Inc., Palo Alto, CA, USA) with C18 column (5 μm 9.4 × 250 mm, Agilent Technologies Inc., Palo Alto, CA, USA). The mobile phase was composed of 0.1% (v/v) trichloroacetic acid (solvent A) and 0.1% (v/v) trichloroacetic acid with 90% (v/v) acetonitrile (solvent B). A linear gradient from 95% A/5% B to 50% A/50% B was used with a flow rate of 1 mL/min, a sample volume of 10 μL, a column temperature of 35 °C, and a detection wavelength of 280 nm. Electrospray ionization mass spectrometry (ESI-MS) was used to compare the McC variant masses with the expected masses. The relationships between the relative abundances and the mass-to-charge ratios (m/z) of the ions were determined to confirm the identities of the experimentally produced McC variants.

indicator bacteria = conditions: second to seventh codons of mccA replaced; cited from earlier work
Description: The heptapeptide precursor of McC, f-MRTGNAN, is encoded by the first gene in the mcc gene clusters, mccA [11]. Considering its protein nature, it is suitable for gene-based peptide engineering. Kazakov et al. first applied site-directed mutagenesis on the mccA gene, systematically replacing the second to seventh codons of mccA encoding 19 standard amino acids for a total of 114 mutations.

Yej^+rimL^− strain [5] = experiment: organism not typed; format: cell-based; conditions: agar diffusion; for bacteriostatic activity after trypsin treatment, Yej^+rimL^− / Diameters of the inhibition zones, Trypsin-Treated Group, Yej^+rimL^−: supernatant treated with trypsin 50 μg/mL, 37 °C, 3 h; for Diameters of the inhibition zones, Trypsin-Untreated Group, Yej^+rimL^−: 200 μL fermentation supernatant, 1 × 10^5 CFU/mL, 4 °C 1 h then 37 °C 24 h, chloramphenicol 100 μL of 0.25 μg/mL; for Diameters of the inhibition zones, Trypsin-Untreated Group, Yej^+rimL^− / Diameters of the inhibition zones, Trypsin-Treated Group, Yej^+rimL^−: dash = no zone; for Diameters of the inhibition zones, Trypsin-Treated Group, Yej^+rimL^−: pH 6.8, 37 °C 24 h
Description: To analyze the antimicrobial ability of the variants, we measured the inhibition zones of all 21 variants by the agar diffusion method. The peptide moiety of McC was recognized by a YejABEf-peptide transporter. The rimL contains an acetyltransferase domain homologous to MccE which can detoxify and provide resistance to McC [17]. The overexpression of the YejABEF gene cluster and rimL gene knockout made the strain hypersensitive to McC. Therefore, the Yej^+rimL^− strain was selected as the sensitive indicator bacterial strain.
as §1, §2

Row | SMILES | remaining at 3 h (chymotrypsin) [%] | bacteriostatic effect on indicator strain K88 (E. coli K88) | remaining at 3 h (pepsin) [%] | remaining at 3 h [1] [%] | antimicrobial activity after trypsin treatment, K88 (E. coli K88) | Diameters of the inhibition zones, Trypsin-Untreated Group, K88 (E. coli K88) [mm] | Diameters of the inhibition zones, Trypsin-Treated Group, K88 (E. coli K88) [mm] | remaining at 3 h [2] [%] | MIC (Yej^+rimL^− strain [3]) [µg/mL] | Retention Time [4] [min] | antimicrobial activity of mccA substitution variants (indicator bacteria) | bacteriostatic activity after trypsin treatment, Yej^+rimL^− (Yej^+rimL^− strain [5]) | Diameters of the inhibition zones, Trypsin-Untreated Group, Yej^+rimL^− (Yej^+rimL^− strain [5]) [mm] | Diameters of the inhibition zones, Trypsin-Treated Group, Yej^+rimL^− (Yej^+rimL^− strain [5]) [mm]
1 | CSCC[C@H](NC=O)C(=O)N[C@@H](CS)C(=O)N[C@H](C(=O)NCC(=O)N[C@@H](CC(N)=O)C(=O)N[C@@H](C)C(=O)N[C@@H](CC(=O)O)C(=O)NP(=O)(OCCCN)OC[C@H]1O[C@@H](n2cnc3c(N)ncnc32)[C@H](O)[C@@H]1O)[C@@H](C)O (stereo partly shown) [R2C] (HELM PEPTIDE1{[O=C[*:2]].M.C.T.G.N.A.[NCCCOP(=O)(NC(=O)[C@H](CC(=O)O)N[*:1])OC[C@H]1O[C@@H](n2cnc3c(N)ncnc32)[C@H](O)[C@@H]1O]}$$$$V2.0) | 40.9 ± 1.22 | no bacteriostatic effects | 82.5 ± 0.98 |  |  |  |  |  |  |  |  |  |  | 
2 | CSCC[C@H](NC=O)C(=O)N[C@@H](CCC(=O)O)C(=O)N[C@H](C(=O)NCC(=O)N[C@@H](CC(N)=O)C(=O)N[C@@H](C)C(=O)N[C@@H](CC(=O)O)C(=O)NP(=O)(OCCCN)OC[C@H]1O[C@@H](n2cnc3c(N)ncnc32)[C@H](O)[C@@H]1O)[C@@H](C)O (stereo partly shown) [R2E] (HELM PEPTIDE1{[O=C[*:2]].M.E.T.G.N.A.[NCCCOP(=O)(NC(=O)[C@H](CC(=O)O)N[*:1])OC[C@H]1O[C@@H](n2cnc3c(N)ncnc32)[C@H](O)[C@@H]1O]}$$$$V2.0) | 38.4 ± 0.97 | no bacteriostatic effects | 90.72 ± 0.74 |  |  |  |  |  |  |  |  |  |  | 
3 | CSCC[C@H](NC=O)C(=O)N[C@@H](Cc1c[nH]cn1)C(=O)N[C@H](C(=O)NCC(=O)N[C@@H](CC(N)=O)C(=O)N[C@@H](C)C(=O)N[C@@H](CC(=O)O)C(=O)NP(=O)(OCCCN)OC[C@H]1O[C@@H](n2cnc3c(N)ncnc32)[C@H](O)[C@@H]1O)[C@@H](C)O (stereo partly shown) [R2H] (HELM PEPTIDE1{[O=C[*:2]].M.H.T.G.N.A.[NCCCOP(=O)(NC(=O)[C@H](CC(=O)O)N[*:1])OC[C@H]1O[C@@H](n2cnc3c(N)ncnc32)[C@H](O)[C@@H]1O]}$$$$V2.0) |  |  |  | 42.7 ± 0.69 | retained their antimicrobial activity | 15.55 | 11.99 | 82.29 ± 0.52 | >100 | 16.872 | bacteriostatic | exhibited antibacterial effects | 18.39 | 15.92
4 | CSCC[C@H](NC=O)C(=O)N[C@@H](CCSC)C(=O)N[C@H](C(=O)NCC(=O)N[C@@H](CC(N)=O)C(=O)N[C@@H](C)C(=O)N[C@@H](CC(=O)O)C(=O)NP(=O)(OCCCN)OC[C@H]1O[C@@H](n2cnc3c(N)ncnc32)[C@H](O)[C@@H]1O)[C@@H](C)O (stereo partly shown) [R2M] (HELM PEPTIDE1{[O=C[*:2]].M.M.T.G.N.A.[NCCCOP(=O)(NC(=O)[C@H](CC(=O)O)N[*:1])OC[C@H]1O[C@@H](n2cnc3c(N)ncnc32)[C@H](O)[C@@H]1O]}$$$$V2.0) |  |  |  | 43.8 ± 0.68 |  | 12.37 |  | 88.7 ± 0.93 | 50 (≈ 43.4 µM) | 19.622 | loss of antimicrobial activity | exhibited antibacterial effects | 21.57 | 14.31
5 | CSCC[C@H](NC=O)C(=O)N[C@@H](CC(N)=O)C(=O)N[C@H](C(=O)NCC(=O)N[C@@H](CC(N)=O)C(=O)N[C@@H](C)C(=O)N[C@@H](CC(=O)O)C(=O)NP(=O)(OCCCN)OC[C@H]1O[C@@H](n2cnc3c(N)ncnc32)[C@H](O)[C@@H]1O)[C@@H](C)O (stereo partly shown) [R2N] (HELM PEPTIDE1{[O=C[*:2]].M.N.T.G.N.A.[NCCCOP(=O)(NC(=O)[C@H](CC(=O)O)N[*:1])OC[C@H]1O[C@@H](n2cnc3c(N)ncnc32)[C@H](O)[C@@H]1O]}$$$$V2.0) | 37.7 ± 1.1 | no bacteriostatic effects | 88.79 ± 0.88 |  |  |  |  |  |  |  |  |  |  | 
6 | CSCC[C@H](NC=O)C(=O)N1CCC[C@H]1C(=O)N[C@H](C(=O)NCC(=O)N[C@@H](CC(N)=O)C(=O)N[C@@H](C)C(=O)N[C@@H](CC(=O)O)C(=O)NP(=O)(OCCCN)OC[C@H]1O[C@@H](n2cnc3c(N)ncnc32)[C@H](O)[C@@H]1O)[C@@H](C)O (stereo partly shown) [R2P] (HELM PEPTIDE1{[O=C[*:2]].M.P.T.G.N.A.[NCCCOP(=O)(NC(=O)[C@H](CC(=O)O)N[*:1])OC[C@H]1O[C@@H](n2cnc3c(N)ncnc32)[C@H](O)[C@@H]1O]}$$$$V2.0) | 42.8 ± 0.76 | no bacteriostatic effects | 86.9 ± 1.24 |  |  |  |  |  |  |  |  |  |  | 
7 | CSCC[C@H](NC=O)C(=O)N[C@@H](CO)C(=O)N[C@H](C(=O)NCC(=O)N[C@@H](CC(N)=O)C(=O)N[C@@H](C)C(=O)N[C@@H](CC(=O)O)C(=O)NP(=O)(OCCCN)OC[C@H]1O[C@@H](n2cnc3c(N)ncnc32)[C@H](O)[C@@H]1O)[C@@H](C)O (stereo partly shown) [R2S] (HELM PEPTIDE1{[O=C[*:2]].M.S.T.G.N.A.[NCCCOP(=O)(NC(=O)[C@H](CC(=O)O)N[*:1])OC[C@H]1O[C@@H](n2cnc3c(N)ncnc32)[C@H](O)[C@@H]1O]}$$$$V2.0) |  |  |  | 41.3 ± 1.27 | retained their antimicrobial activity | 13.46 | 9.44 | 84.33 ± 0.77 | 100 (≈ 90.2 µM) | 17.004 | bacteriostatic | exhibited antibacterial effects | 17.35 | 16.34
